Experimental data published in ChEMBL document CHEMBL1141051, “Antiviral 6-amino-quinolones: molecular basis for potency and selectivity” (Bioorg Med Chem Lett, 2005).

How the values were obtained:
Nucleic Acid [1] = test: Effective concentration required for binding to mutant loopless TAR using electrophoretic mobility shift assays done at 25 degree C with pH 7.5; type: nucleic-acid assay, Human immunodeficiency virus 1
Nucleic Acid [2] = test: Effective concentration required for binding to wild-type TAR using electrophoretic mobility shift assays done at 25 degree C with pH 7.5; type: nucleic-acid assay, Human immunodeficiency virus 1
[3] = molecular target: T1, Protein Tat (Human immunodeficiency virus type 1 group M subtype B (isolate HXB2)(HIV-1)) (UniProt P04608); test: Binding constant (K) against Tat/TAR using 1:1 quinolone/Mg2+ complex done at 25 degree C with pH 7.5; conditions: Human immunodeficiency virus 1
T1 sequence (whole entry): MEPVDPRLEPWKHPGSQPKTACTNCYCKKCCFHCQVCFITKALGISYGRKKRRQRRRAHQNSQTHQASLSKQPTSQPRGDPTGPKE

Nucleic Acid [4] = test: Effective concentration required for binding to tRNA using electrophoretic mobility shift assays done at 25 degree C with pH 7.5; type: nucleic-acid assay, Human immunodeficiency virus 1
Nucleic Acid [5] = test: Effective concentration required for binding to mutant double stranded TAR using electrophoretic mobility shift assays done at 25 degree C with pH 7.5; type: nucleic-acid assay, Human immunodeficiency virus 1

| Compound | EC50 (Nucleic Acid [1]) [nM] | EC50 (Nucleic Acid [2]) [nM] | K [3] [M⁻¹] | EC50 (Nucleic Acid [4]) [nM] | EC50 (Nucleic Acid [5]) [nM] |
| --- | --- | --- | --- | --- | --- |
| Cn1cc(C(=O)O)c(=O)c2cc(N)c(N3CCN(c4ccccn4)CC3)cc21 | 320 | 210 | 6650 | > 50000 |  |
| O=C(O)c1cn(C2CC2)c2cc(N3CCNCC3)c(F)cc2c1=O |  |  | 790 |  |  |
| Nc1cc2c(=O)c(C(=O)O)cn(C3CC3)c2cc1N1CCN(c2cccc(C(F)(F)F)c2)CC1 |  | 190 | 13600 | 130 | 50 |
